Experimental data published in patent US6407113B1, “Medicament for treatment of diastolic dysfunction” (Mitsubishi Chemical Corporation, priority 1998, dated 2002).

Experiments:
[1] = target: T1, sarcoplasmic reticulum Ca^2+-ATPase (Canis lupus familiaris, UniProt O46674); assay: Sarcoplasmic reticulum Ca2+-ATPase activity of myocardium collected after in vivo drug administration (Pi colorimetry); format: biochemical, dog
T1 construct: sarcoplasmic reticulum from both post-ischemic and non-ischemic regions of the left ventricle of dogs; from tissue; host or cells: dog left ventricle (LAD occluded 30 min, reperfused 30 min), sarcoplasmic reticulum fraction
T1 sequence (O46674 whole entry, the tested form may be a part): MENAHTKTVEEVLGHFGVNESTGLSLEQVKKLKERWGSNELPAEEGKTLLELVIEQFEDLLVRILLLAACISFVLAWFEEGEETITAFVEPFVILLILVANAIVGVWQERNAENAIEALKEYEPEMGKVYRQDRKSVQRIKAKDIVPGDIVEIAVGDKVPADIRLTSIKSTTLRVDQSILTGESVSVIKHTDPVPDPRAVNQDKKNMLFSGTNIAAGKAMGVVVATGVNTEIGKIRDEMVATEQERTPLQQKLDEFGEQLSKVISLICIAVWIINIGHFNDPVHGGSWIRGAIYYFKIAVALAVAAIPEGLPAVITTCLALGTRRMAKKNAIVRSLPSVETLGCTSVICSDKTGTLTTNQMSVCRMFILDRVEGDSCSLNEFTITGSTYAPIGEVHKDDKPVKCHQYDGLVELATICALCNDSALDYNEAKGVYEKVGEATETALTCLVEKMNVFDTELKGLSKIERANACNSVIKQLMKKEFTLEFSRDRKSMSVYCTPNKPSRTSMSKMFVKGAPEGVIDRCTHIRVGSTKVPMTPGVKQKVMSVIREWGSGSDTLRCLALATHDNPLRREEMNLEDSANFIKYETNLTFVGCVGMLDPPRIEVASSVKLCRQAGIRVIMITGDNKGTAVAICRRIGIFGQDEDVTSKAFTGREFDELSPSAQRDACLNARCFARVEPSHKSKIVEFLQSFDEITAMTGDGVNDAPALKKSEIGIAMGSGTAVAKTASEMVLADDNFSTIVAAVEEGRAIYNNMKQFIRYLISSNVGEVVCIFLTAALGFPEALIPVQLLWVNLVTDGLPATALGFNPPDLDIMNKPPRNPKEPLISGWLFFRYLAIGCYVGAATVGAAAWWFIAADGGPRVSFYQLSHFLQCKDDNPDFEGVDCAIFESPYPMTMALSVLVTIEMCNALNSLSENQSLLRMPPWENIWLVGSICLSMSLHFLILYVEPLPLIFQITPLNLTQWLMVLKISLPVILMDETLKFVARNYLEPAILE
Procedure: After hemodynamic stability is established following operation, the dissected portion of LAD was occluded for 30 minutes and then reperfused for 1 hour. At the same time, the cardiac function (%SS) in the above-described ischemic/reperfused region was continuously monitored through-out the protocol.
The animals were randomly grouped into two groups, one consisting of animals to be administered with the medicament of the present invention (Drug administration group; N=6) and the other of control group (N-6). The dogs of drug administration group were intravenously administered with the medicament of the present invention (3 μg/kg) into the right femoral vein 5 minutes before reperfusion, followed by continuous infusion at 30 μg/kg/hr. Dogs of the control group were administered with the equal amount of saline.
After 1-hour reperfusion, their hearts were isolated and the myocardium in post-ischemic region and non-ischemic region of the left ventricles were collected from which the fractions having sarcoplasmic reticulum Ca^2+-ATPase activity were extracted to be subjected to protein assay (Bradford method) and stored at −80° C. The defrozen fractions were used to determine Ca^2+-ATPase activity. The activity was determined by measuring the amount of the generated inorganic phosphate (Pi) by colorimetry using phosphor/molybdic acid and malachite green (μmoles Pi/mg protein/min).
Next, results obtained from the Ca^2+-ATPase activity assay of the sarcoplasmic reticulum collected from each region are shown in FIGS. 2 and 3.

[2] = target: T1, sarcoplasmic reticulum Ca^2+-ATPase; assay: Direct effect in vitro on sarcoplasmic reticulum Ca2+-ATPase activity; format: biochemical, dog; details: preincubation 37° C. 5 min; for sarcoplasmic reticulum Ca^2+-ATPase activity, post-ischemic region, in vitro: control 0.045±0.005; for sarcoplasmic reticulum Ca^2+-ATPase activity, non-ischemic region, in vitro: control 0.057±0.003
Procedure: The Ca^2+-ATPase activity of the sarcoplasmic reticulum from both post-ischemic and non-ischemic regions of the left ventricle of dogs, in which LAD was occluded for 30 minutes followed by reperfusion for 30 minutes, was measured in the same manner as in Example 1. The direct effect of the medicament of the present invention on the sarcoplasmic reticulum was examined in vitro by determining the amount of inorganic phophorous generated during the reaction for 15 minutes, which was triggered by adding ATP to the reaction solution, with the preincubated medicament of the present invention at 37° C. for 5 minutes.
For each of post-ischemic region and non-ischemic region (N=6), three groups were tested; control group which was preincubated with H2O, groups with low level dosage (10^−7 M of the medicament of the present invention was administered), and group with high level dosage (10^−6 M of the medicament of the present invention was administered)

[3] = test system: ischemic/reperfused myocardium; assay: Regional cardiac function (%SS) in brief-ischemic/reperfused myocardium in dogs; format: in vivo; details: dog; 30 min LAD occlusion, 1 h reperfusion; 3 μg/kg i.v. 5 min before reperfusion then 30 μg/kg/hr infusion
Procedure: The chest of mongrel dogs (adult, male and female) was opened under anesthesia with pentobarbital (30 mg/kg, i.v.) and a portion of the left coronary anterior descending (LAD) was dissected. A catheter-tip-pressure transducer (Millar; MPC-500) was inserted from the left carotidartery into the left ventricle to determine the left ventricular pressure and its first differential value (dP/dt). A pair of crystal probes were mounted in the LAD region to determine changes in regional segment length. Diastolic segment length (EDL; threshold point of dP/dt) and systolic segment length (ESL; dP/dt(−) max point) were determined from the waveform of dP/dt, and the regional segment shortening (%SS) in the ischemic/reperfused myocardium was calculated as follows: %SS=(EDL−ESL)/EDL×100. After hemodynamic stability is established following operation, the dissected portion of LAD was occluded for 30 minutes and then reperfused for 1 hour. At the same time, the cardiac function (%SS) in the above-described ischemic/reperfused region was continuously monitored through-out the protocol. The animals were randomly grouped into two groups, one consisting of animals to be administered with the medicament of the present invention (Drug administration group; N=6) and the other of control group (N-6). […]

| SMILES | inhibition of the ATPase activity of the sarcoplasmic reticulum fraction ([1]; 1 μM) | sarcoplasmic reticulum Ca^2+-ATPase activity, post-ischemic region, in vitro ([2]; 10^−6 M (high concentration)) | sarcoplasmic reticulum Ca^2+-ATPase activity, non-ischemic region, in vitro ([2]; 10^−6 M (high level dosage)) | sarcoplasmic reticulum Ca^2+-ATPase activity, post-ischemic region, in vitro ([2]; 10^−7 M (low concentration)) | sarcoplasmic reticulum Ca^2+-ATPase activity, non-ischemic region, in vitro ([2]; 10^−7 M (low level dosage)) | sarcoplasmic reticulum Ca^2+-ATPase activity, post-ischemic region ([1]; Ca^2+ 10 μM, dog dosed in vivo 3 μg/kg i.v. + 30 μg/kg/hr, control group 0.070±0.004) | sarcoplasmic reticulum Ca^2+-ATPase activity, non-ischemic region ([1]; Ca^2+ 10 μM, dog dosed in vivo 3 μg/kg i.v. + 30 μg/kg/hr, control group 0.089±0.009) | regional cardiac function (%SS) in post-reperfusion region compared to control group [3] |
| --- | --- | --- | --- | --- | --- | --- | --- | --- |
| C/C=C(/C)C(=O)O[C@H]1C(C)=C2[C@H]([C@@H]1OC(=O)CCCCCCC)[C@@](C)(OC(C)=O)C[C@H](OC(=O)CCC)[C@@]1(O)[C@H]2OC(=O)[C@@]1(C)O [Thapsigargin, reference compound] | completely inhibited | – | – | – | – | – | – | – |
| Cc1ccc(N2CCNCC2)c(S(=O)(=O)O)c1 [medicament of the present invention, 2-(1-piperazinyl)-5-methylbenzenesulfonic acid derivative monohydrate] | – | 0.062±0.005 μmol Pi/mg min | 0.060±0.003 μmol Pi/mg min | 0.057±0.003 μmol Pi/mg min | 0.062±0.002 μmol Pi/mg min | 0.090±0.008 μmol Pi/mg min | 0.088±0.006 μmol Pi/mg min | significantly improved |
